The experiment addresses T1, human Werner helicase (WRN-BV08, Uniprot Q14191, amino acids 517-1235 with L1074F point mutation) (Homo sapiens, UniProt Q14191, L1074F).
T1 construct: Uniprot Q14191, amino acids 517-1235 with L1074F point mutation; TEV-cleavable 8×His (C, cleaved yes); made in house; host or cells: Sf9 insect cells (baculovirus)
Briefly: WRN (BV08) ADP-Glo Assay. The format is biochemical. The note with it: 0.15 nM WRN, 5 μM ATP, 0.1 nM DNA duplex, 15 min preincubation, 60 min at 25° C., pH 7.5, 1% DMSO; read-out: ADP-Glo_hWRN_IC50. A digest of the protocol: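 0.15 nM WRN (aa 517-1235, L1074F, Sf9-expressed, tag cleaved) preincubated 15 min at 25 °C with compound, then 5 μM ATP and 0.1 nM DNA duplex added for 60 min. Buffer: 20 mM Bicine pH 7.5, 1 mM MgCl2, 10 mM KCl, 1 mM TCEP; 1% DMSO. ADP-Glo luminescence; IC50 by 4-parameter fit.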
On the technique in general: ADP-Glo first removes unused ATP, then detects ADP through luciferase.

T1 sequence (Q14191 with tags, fused parts or gaps L1074F limits assumed): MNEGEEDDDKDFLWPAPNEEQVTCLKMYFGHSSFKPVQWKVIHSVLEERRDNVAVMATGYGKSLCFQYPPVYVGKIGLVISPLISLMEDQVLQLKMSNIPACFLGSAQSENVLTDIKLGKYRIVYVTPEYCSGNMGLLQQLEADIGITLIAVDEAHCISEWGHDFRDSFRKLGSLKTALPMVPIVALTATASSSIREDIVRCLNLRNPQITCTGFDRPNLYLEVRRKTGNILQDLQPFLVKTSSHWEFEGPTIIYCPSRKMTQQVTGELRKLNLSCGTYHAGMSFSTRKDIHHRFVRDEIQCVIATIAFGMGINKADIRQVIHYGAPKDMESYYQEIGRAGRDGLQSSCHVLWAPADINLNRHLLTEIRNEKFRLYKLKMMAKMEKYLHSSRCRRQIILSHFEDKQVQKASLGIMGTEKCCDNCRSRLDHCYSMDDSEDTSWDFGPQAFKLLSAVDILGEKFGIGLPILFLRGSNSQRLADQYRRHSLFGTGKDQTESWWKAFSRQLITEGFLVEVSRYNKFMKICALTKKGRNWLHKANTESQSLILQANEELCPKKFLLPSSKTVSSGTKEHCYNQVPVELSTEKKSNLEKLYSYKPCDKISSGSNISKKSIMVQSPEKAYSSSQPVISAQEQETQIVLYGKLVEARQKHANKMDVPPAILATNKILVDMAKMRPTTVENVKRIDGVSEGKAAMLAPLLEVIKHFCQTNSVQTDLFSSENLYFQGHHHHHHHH

In the case of `O=C(Cc1ccc(C(F)(F)F)cc1)N(Cc1ccncc1)C1C=CS(=O)(=O)C1` (stereo not shown) [I-254, N-(1,1-dioxo-2,3-dihydro-1lambda6-thiophen-3-yl)-N-[(pyridin-4-yl)methyl]-2-[4-(trifluoromethyl)phenyl]acetamide], the IC50 fell in the range of 5 to 10 µM.

For the compound `O=C(Cc1cccc(Oc2ccccc2)c1)N(Cc1ccncc1)C1C=CS(=O)(=O)C1` (stereo not shown) [I-510, N-(1,1-dioxo-2,3-dihydro-1lambda6-thiophen-3-yl)-2-(3-phenoxyphenyl)-N-[(pyridin-4-yl)methyl]acetamide], the IC50 was more than 50 µM. On to `O=C(Cn1ncc2ccc(C(F)F)cc21)N(Cc1ccncc1)C1C=CS(=O)(=O)C1` (stereo not shown) [I-593, 2-[6-(difluoromethyl)-1H-indazol-1-yl]-N-(1,1-dioxo-2,3-dihydro-1lambda6-thiophen-3-yl)-N-[(pyridin-4-yl)methyl]acetamide], for which the IC50 was more than 50 µM.

On to `O=C(Cc1ccc(S(F)(F)(F)(F)F)cc1)N(Cc1ccnc(OC(F)(F)F)c1)C1C=CS(=O)(=O)C1` (stereo not shown) [I-725, N-(1,1-dioxo-2,3-dihydro-1lambda6-thiophen-3-yl)-2-[4-(pentafluoro-lambda6-sulfanyl)phenyl]-N-{[2-(trifluoromethoxy)pyridin-4-yl]methyl}acetamide], for which the IC50 was 0.5 to 5 µM. The value for `O=C(Cn1cc2ccccc2n1)N(Cc1ccncc1)C1C=CS(=O)(=O)C1` (stereo not shown) [I-433, N-(1,1-dioxo-2,3-dihydro-1lambda6-thiophen-3-yl)-2-(2H-indazol-2-yl)-N-[(pyridin-4-yl)methyl]acetamide] was more than 50 µM. The value for `O=C(Cc1ccc(S(F)(F)(F)(F)F)cc1)N(Cc1nc(C2CCC2)cs1)C1C=CS(=O)(=O)C1` (stereo not shown) [I-14, N-[(4-cyclobutyl-1,3-thiazol-2-yl)methyl]-N-(1,1-dioxo-2,3-dihydro-1lambda6-thiophen-3-yl)-2-[4-(pentafluoro-lambda6-sulfanyl)phenyl]acetamide] was less than 0.5 µM. The value for `O=C(Cc1ccc(-n2cccc2)cc1)N(Cc1ccc(Br)cc1)C1C=CS(=O)(=O)C1` (stereo not shown) [I-163, N-[(4-bromophenyl)methyl]-N-(1,1-dioxo-2,3-dihydro-1lambda6-thiophen-3-yl)-2-[4-(1H-pyrrol-1-yl)phenyl]acetamide] was 0.5 to 5 µM. Take `O=C(CCc1[nH]nc2ccccc12)N(Cc1ccncc1)C1C=CS(=O)(=O)C1` (stereo not shown) [I-413, N-(1,1-dioxo-2,3-dihydro-1lambda6-thiophen-3-yl)-3-(2H-indazol-3-yl)-N-[(pyridin-4-yl)methyl]propanamide]: the IC50 is more than 50 µM. For `CC(C)(O)c1cc(CN(C(=O)Cc2ccc(-c3ccc(Cl)cc3)cc2F)C2C=CS(=O)(=O)C2)ccn1` (stereo not shown) [I-180, 2-{4′-chloro-3-fluoro-[1,1′-biphenyl]-4-yl}-N-(1,1-dioxo-2,3-dihydro-1lambda6-thiophen-3-yl)-N-{[2-(2-hydroxypropan-2-yl)pyridin-4-yl]methyl}acetamide] the value was 0.5 to 5 µM.

As for `O=C(Cn1ncc2ccccc21)N(Cc1ccncc1)C1C=CS(=O)(=O)C1` (stereo not shown) [I-454, N-(1,1-dioxo-2,3-dihydro-1lambda6-thiophen-3-yl)-2-(1H-indazol-1-yl)-N-[(pyridin-4-yl)methyl]acetamide], the IC50 is more than 50 µM. For `CCC(C)c1ccc(CC(=O)N(Cc2ccncc2)C2C=CS(=O)(=O)C2)cc1` (stereo not shown) [I-216, 2-[4-(butan-2-yl)phenyl]-N-(1,1-dioxo-2,3-dihydro-1lambda6-thiophen-3-yl)-N-[(pyridin-4-yl)methyl]acetamide] the value was 5 to 10 µM. Regarding `O=C(C(C(=O)N(Cc1ccncc1)C1C=CS(=O)(=O)C1)c1ccc(-c2ccc(F)cc2)cc1)N1CCC1` (stereo not shown) [I-140, 3-(azetidin-1-yl)-N-(1,1-dioxo-2,3-dihydro-1lambda6-thiophen-3-yl)-2-{4′-fluoro-[1,1′-biphenyl]-4-yl}-3-oxo-N-[(pyridin-4-yl)methyl]propanamide], the IC50 is 0.5 to 5 µM.

On to `O=C(C1CC(c2ccccc2)O1)N(Cc1ccncc1)C1C=CS(=O)(=O)C1` (stereo not shown) [I-647, N-(1,1-dioxo-2,3-dihydro-1lambda6-thiophen-3-yl)-4-phenyl-N-[(pyridin-4-yl)methyl]oxetane-2-carboxamide], for which the IC50 is more than 50 µM.

(Values after patent US20260297070A1, “CYCLIC [COMPOUND LEFT OUT] WRN INHIBITORS” (Nimbus Wadjet, Inc., priority 2023, published 2026).)
